Measured values from patent US6500810B2, “Method of regulating expression of adhesion molecules on circulating leukocytes” (Sky High, LLC, priority 1999, dated 2002).

Tested on: CD18
Assay: Flow cytometry of CD18 on isolated rat neutrophils stimulated with LTB4
Format: cell-based
Details: in vitro
Procedure: Flow cytometric analysis of CD18 complex in rat neutrophils was performed according to standard procedures as described in Vedder & Harlan, J. Clin. Invest., 81:676-682 (1988). Rat neutrophils were freshly isolated from rat whole blood according to the method of Williams et al., J. Leukocyte Biol., 42:455-462 (1987). Isolated neutrophils were washed twice in calcium-free Tyrode's solution containing 0.2% bovine serum albumin (BSA) and suspended in RPMI1630 medium. Neutrophils (5×10^5 cells/tube) were incubated with a monoclonal antibody directed against CD18 (Endogen, Boston, Mass.) at 4° C. for 30 minutes. Excess primary antibody was then removed by washing the platelets or neutrophils in RPMI1630. A goat anti-human gig F(AB′)2 FITC conjugate was used as the secondary antibody at a 1:100 dilution (4° C. for 30 minutes). The stained neutrophils were washed twice with RPMI1630 and finally fixed in 1% paraformaldehyde, and then analyzed by flow cytometry (FACScan, Becton-Dickinson, San Jose, Calif.).

CCCCCCCC/C=C\CCCCCCCC(=O)OCC(COP(O)(O)=S)OC (racemic) [LXR-1035, rac-1-thiophosphate-2-O-methyl-3-oleioyl-glycerol]
cell surface expression of the adhesion molecule CD18: inhibits
